Data published in patent US20040220164A1, “Triaza compound immunoregulatory agents” (priority 2001, published 2004).
Where two headings read alike, the source gives them in different places.

Tests used:
Assay type in all cases: cell-based
[1] = target: T1, CD4 (Homo sapiens, UniProt P01730); assay: Cell surface CD4 expression by flow cytometry (anti-CD4 mAb Leu3a-PE); set-up: To study the effect of the CADA derivatives on surface CD4 antigen expression, MT-4 and SupT1 cells were incubated; endogenous in cells; host or cells: MT-4, SupT1, PBMC; conditions: for CD4 cell surface antigen expression: percentage of positive cells, unit not given; for surface CD4 antigen expression: CADA 3.2 μM; for percentage of cell surface CD4 expression: ATA 24 μM, PMA 8 nM (FIG. 4)
Summary of the method: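 MT-4, SupT1 cells and PBMCs were exposed at 37° C to CADA hydrochloride (3.2 or 16 μM) for 20 min to 4 days, with ATA (24 μM) and PMA (8 nM) as comparators in SupT1. Cells were stained with PE-anti-CD4 (Leu3a) for 20 min at 4° C and fixed in 1% formaldehyde. Read-out was flow cytometry as % positive cells and MFI.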

[2] = tested on: HHV-7 (KHR strain); assay: Anti-HHV-7 assay (HHV-7 antigen expression, flow cytometry, day 12)
Experimental: The antiviral activity of CADA against HIV-1 and RHV-7 was investigated. PBMCs and […] cell-depleted PBMCs (removed with CD8 magnetic beads; Dynal AS, Oslo, Norway), previously activated with purified PHA (2 μg/ml) and rhIL-2 (1 ng/ml) for 3 days, were pelleted and exposed to HIV-1 (1 ng p24 Ag per 10^6 cells) for 2 hours at 370C. Then the cells were washed three times with warm medium and cultured in complete medium containing rhIL-2 (1 ng/ml) in the presence or absence of different concentrations of CADA hydrochloride. The anti-HIV-1 assays were also performed in MT-4 and SupT1 cells. CADA hydrochloride was diluted in the plates, then the MT-4 cells or SupT1 cells were added and finally the T-tropic HIV-1 strains. The supernatant was collected at day 5 for MT-4 cells, day 8 for SupT1 cells and day 12 for PBMCs, and stored at −20° C. and analyzed for HIV-1 core antigen by p24 Ag ELISA (NEN, Brussels, Belgium). The SupT1 cells were refreshed on day 4, and half of the medium and cells were replaced and fresh CADA-free medium was added. For the PBMCs, fresh culture medium was added at day 6 containing rhIL-2 (but no CADA). For the anti-HHV-7 assays in PBMCs, CADA hydrochloride was diluted in a plate, 2×10˜cells were added and then HHV-7 (KHR strain) was added in complete medium containing rhIL-2 (1 ng/ml). Fresh culture medium was added again at day 6 containing rhIL-2 (but no CADA). The same infection protocol was used for the SupT1 cells, but without rhIL-2. The SupT1 cells were refreshed on day 4 and day 8, half of the medium and the cells were replaced, and fresh medium without CADA was added. The HHV-7 antigen expression was monitored (at day 12) with a specific mAb to HHV-7 (RK-4) (Advanced Biotechnologies, Columbia, Md.) by flow cytometry, as described previously (Thang, Y., et al., Antiviral Res. 43:23-35 (1999)).

[3] = target: T1, CD4; assay: Quantification of the CD4 receptor by antibody binding; set-up: endogenous in cells; the paragraph deals with MT-4, SupT1 cells and PBMCs; conditions: after treatment with CADA
Experimental: Table 4 presents the results for MT-4 cells pretreated with CADA for 1 day at 8.1 μM and then infected with the HIV-1 strain NL4.3 or RF in the presence or absence of CADA. […] As three CD4 binding events are needed to efficiently activate HIV-1 Env trimers (Layne, S. P., et al., Nature 346: 602-605 (1990)), multimeric CD4 binding is required for HIV infection, further confirming that receptor density plays a crucial role in the efficiency of viral infectivity (Platt, E. J., et al., J. Virol. 71: 883-890 (1997)). […] Primary HIV isolates seem to be much more dependent on the level of CD4 expression (Kabat; D., et al., J. Virol. 68:2570-2577 (1994)). […] Although CD4-independent viruses are described (Hofflian, T. L., et al., Proc. Natl. Acad. Sci. U.S.A. 96: 63 59-6364 (1999)), these are much more sensitive to neutralization by antibodies, which explains the rarity of CD4-independent wild-type HIV variants (Kolchinski, P., et al., J. Virol. 75: 204 1-2050 (2001)).

| SMILES | down-regulation of CD4 expression (in words) [1] | IC50 ([2]; PBMC, CD8+ depleted PBMC, read-out: IC50 against HHV-7) | IC50 ([2]; PBMC, read-out: IC50 against HHV-7) | IC50 ([2]; SUP-T1, SupT1 cells, PBMCs and CD8+ T-cell depleted PBMCs, read-out: inhibitory concentration (IC50) for HHV-7, range over cell types) | IC50 ([2]; SUP-T1, SupT1 cells, read-out: IC50 against HHV-7) | amount of CD4 Ab bound to the cells [3] | decrease in bound antibody [3] | CD4 cell surface antigen expression ([1]; MT-4 T-cells, CADA 16 μM, 4 days) | surface CD4 antigen expression ([1]; MT-4 cells, 1 day, control 95.6%) | surface CD4 antigen expression ([1]; MT-4 cells, 4 days, control 95.6%) | percentage of CD4 expression ([1]; PBMCs, CADA 16 μM, 4 days) | CD4 cell surface antigen expression ([1]; PBMCs, CADA 16 μM, 4 days) | CD4 cell surface antigen expression ([1]; SupT1 T-cells, CADA 16 μM, 4 days) | percentage of cell surface CD4 expression ([1]; SupT1 cells, 20 minutes, CADA 16 μM) | percentage of cell surface CD4 expression ([1]; SupT1 cells, 4 hours, CADA 16 μM) | percentage of cell surface CD4 expression ([1]; SupT1 cells, 1 day, CADA 16 μM) | percentage of cell surface CD4 expression ([1]; SupT1 cells, 4 days, CADA 16 μM) | surface CD4 antigen expression ([1]; SupT1 cells, 1 day, control 96.4%) | surface CD4 antigen expression ([1]; SupT1 cells, 4 days, control 96.4%) | effect of human serum on CD4 down-modulation induced by CADA ([1]; presence of human serum) |
| --- | --- | --- | --- | --- | --- | --- | --- | --- | --- | --- | --- | --- | --- | --- | --- | --- | --- | --- | --- | --- |
| C=C1CN(S(=O)(=O)c2ccc(C)cc2)CCCN(CC2CCCCC2)CCCN(S(=O)(=O)c2ccc(C)cc2)C1 [QJ028] | down-regulate CD4 expression |  |  |  |  |  |  |  |  |  |  |  |  |  |  |  |  |  |  |  |
| C=C1CN(S(=O)(=O)c2ccc(C)cc2)CCCN(Cc2ccccc2)CCCN(S(=O)(=O)c2ccc(C)cc2)C1 [CADA] |  | 900 nM | 1500 nM | 300 to 1500 nM | 300 nM | approximately 5,000 /cell | ~90% | 6.3 | 4.9% | 6.3% | 0.2% | 0.2 | 1.2 | still as high as in the untreated cells | still as high as in the untreated cells | decrease became clearly visible | 1.2% | 46.4% | 1.2% | did not affect |
| C=C1CN(S(=O)(=O)c2ccc(C)cc2)CCCN(C(=O)OCCC)CCCN(S(=O)(=O)c2ccc(C)cc2)C1 [QJ033] | down-regulate CD4 expression |  |  |  |  |  |  |  |  |  |  |  |  |  |  |  |  |  |  |  |
